Reference: patent publication US20230220481A1, “Method for Determining Sensitivity to 2,2'-Dithio-bis-Ethane Sulfonate” (Lantern Pharma Inc., priority 2020, published 2023)

Assays:
[1] = system: nuclear factor erythroid 2-related factor 2 (Nrf2); assay: Induction of nuclear expression of Nrf2 in NGF-differentiated PC12 cells, western blotting; type: cell-based, rat; details: PC12 neuron-like cells
Protocol: PC12 cells were suspended in DMEM containing 7.5% inactivated fetal bovine serum and 7.5% inactivated horse serum. After seeding onto a type I collagen-coated 100 mm culture dish, these cells were incubated for 7 days in the presence of 100 ng/mL NGF for priming. Culture medium was then replaced with Neurobasal™ medium supplemented with N-2 supplement and 2 mM glutamine containing NGF 30 ng/mL, and cells were incubated again for 3 days for differentiation into neuron-like cells. Next, these cells were treated with 2,2′-dithio-bis-ethane sulfonate 6 mM for 1, 2, 4 and 8 hours, or with a known Nrf2 activator, tert-butylhydroquinone (t-BHQ) 30 μM for 3 hours. Nuclear proteins were then extracted from the cells for detection of nuclear expression of Nrf2 by western blotting.

[2] = system: Non-small cell lung cancer cell line HCC827; assay: Gene expression level changes by whole transcriptome profiling (RNAseq) in HCC827 cells; type: cell-based; details: 2 h treatment, 1 mM and 15 mM, versus untreated control
Excerpt: Another embodiment includes a method for treating or determining the sensitivity of non-small cell cancer to a 2,2′-dithio-bis-ethane sulfonate treatment by assessing the level of NRF2 (SEQ ID NO: 1) expression and at least one gene selected from the group consisting of: NQO1 (SEQ ID NO: 2), PHGDH (SEQ ID NO: 3), HMOX1 (SEQ ID NO: 4), SLC7A11 (SEQ ID NO: 5), SRXN1 (SEQ ID NO: 6), SOX2(SEQ ID NO: 7), GPX2 (SEQ ID NO: 8), GPX3 (SEQ ID NO: 9), and GPX7(SEQ ID NO: 10). For illustration, non-small cell lung cancer cell line HCC827 was treated for 2 h with 2,2′-dithio-bis-ethane sulfonate alone at concentrations of 1 mM and 15 mM and gene expression level changes were measured by whole transcriptome profiling using RNAseq. A control sample with no treatment for the same duration was used as the baseline gene expression level. A greater than 1.5 to 2-fold expression level change can be indicative of 2, 2′-dithio-bis-ethane sulfonate sensitivity.
Non-small cell lung cancer cell line HCC827 was treated for 2 h with disodium 2,2′-dithio-bis-ethane sulfonate alone at concentrations of 1 mM and 15 mM and gene expression level changes were measured by whole transcriptome profiling using RNAseq. A control sample with no treatment for the same duration was used as the baseline gene expression level. […]

Row | SMILES | induction of nuclear expression of Nrf2 ([1]; 30 μM, 3 hours) | time at which nuclear expression of Nrf2 started after the start of treatment ([1]; 6 mM) [h] | time until which apparent expression of Nrf2 persisted after the start of treatment ([1]; 6 mM) [h] | induction of nuclear expression of Nrf2 ([1]; 6 mM, 1, 2, 4 and 8 hours) | gene expression level change of NRF2 biomarker genes (NQO1, PHGDH, HMOX1, SLC7A11, SRXN1, SOX2, GPX2, GPX3, GPX7) [2]
1 | CC(C)(C)c1cc(O)ccc1O [t-BHQ, tert-butylhydroquinone, reference compound] | induction of nuclear expression of Nrf2 | – | – | – | –
2 | O=S(=O)([O-])CCSSCCS(=O)(=O)[O-].[Na+].[Na+] [2,2′-dithio-bis-ethane sulfonate, disodium 2,2′-dithio-bis-ethane sulfonate] | – | 1 | 8 | induction of nuclear expression of Nrf2 | nine genes are upregulated
